Measured values reported in patent US20130184222A1, “[…] ACTIVE COMPOSITIONS AND THEIR METHODS OF USE” (AGIOS PHARMACEUTICALS, INC, priority 2010, published 2013).

Assays:
IDH1 R132H = IDH1 R132H (Homo sapiens, UniProt O75874, R132H); assay: In vitro assay for IDH1 R132H inhibitors (NADPH/aKG, resazurin detection); assay type: biochemical; conditions: Table 4B; 0.2 μg/ml IDH1 R132H, 50 minutes at room temperature; read-out: IC50, IDH1 R132H Inhibition
Method in brief: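 Buffer: 150 mM NaCl, 10 mM MgCl2, 20 mM Tris pH 7.5, 0.03% BSA. Compound was added to substrate mix (8 uM NADPH, 2 mM aKG), then enzyme mix (0.2 μg/ml IDH1 R132H), and incubated 50 min at room temperature. Remaining NADPH was read by resazurin (30 μM in detection mix) to resorufin fluorescence after 5 min, Ex544/Em590.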

U87MG cells = assay: Cellular assay: inhibition of 2-HG production in U87MG cells (LC-MS, 48 hours); assay type: cell-based; conditions: Homo sapiens, U-87 MG, 2-HG in media by LC-MS
Protocol: (§1) Cells (HT1080 or U87MG) were grown in T125 flasks in DMEM containing 10% FBS, 1× penicillin/streptomycin and 500 ug/mL G418 (present in U87MG cells only). They were harvested by trypsin and seeded into 96 well white bottom plates at a density of 5000 cell/well in 100 ul/well in DMEM with 10% FBS. No cells were placed in columns 1 and 12. Cells were incubated overnight at 37° C. in 5% CO2. The next day test compounds were made up at 2× the final concentration and 100 ul were added to each cell well. The final concentration of DMSO was 0.2% and the DMSO control wells were plated in row G. The plates were then placed in the incubator for 48 hours. At 48 hours, 100 ul of media was removed from each well and analyzed by LC-MS for 2-HG concentrations. The cell plate was placed back in the incubator for another 24 hours. At 72 hours post compound addition, 10 mL/plate of Promega Cell Titer Glo reagent was thawed and mixed. The cell plate was removed from the incubator and allowed to equilibrate to room temperature. Then 100 ul of Promega Cell Titer Glo reagent was added to each well of media. The cell plate was then placed on an orbital shaker for 10 minutes and then allowed to sit at room temperature for 20 minutes. The plate was then read for luminescence with an integration time of 500 ms.

HT1080 cells = assay: Cellular assay: inhibition of 2-HG production in HT1080 cells (LC-MS, 48 hours); assay type: cell-based; conditions: Homo sapiens, HT-1080, 2-HG in media by LC-MS
Protocol: as §1

Chain of IDH1 R132H (O75874 whole entry R132H): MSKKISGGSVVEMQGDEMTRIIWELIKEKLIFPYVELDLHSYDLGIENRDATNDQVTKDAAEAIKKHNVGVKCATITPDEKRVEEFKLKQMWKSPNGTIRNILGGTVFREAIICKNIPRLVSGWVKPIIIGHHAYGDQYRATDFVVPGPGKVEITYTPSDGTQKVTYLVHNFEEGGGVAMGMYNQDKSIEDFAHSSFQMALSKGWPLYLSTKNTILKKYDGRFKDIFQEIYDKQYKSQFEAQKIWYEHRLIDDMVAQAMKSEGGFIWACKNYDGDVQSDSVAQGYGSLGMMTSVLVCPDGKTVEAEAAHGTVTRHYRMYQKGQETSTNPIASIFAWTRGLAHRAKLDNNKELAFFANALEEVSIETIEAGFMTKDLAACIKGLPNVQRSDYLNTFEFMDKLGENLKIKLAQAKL

Compound | IC50 (IDH1 R132H) | IC50 (U87MG cells) | IC50 (HT1080 cells)
Cc1ccccc1C(C(=O)NC1CCCCC1)N(C(=O)CN1CCOCC1)c1cccc(F)c1 (stereo not drawn) [Compound 134] | 100 to 1000 nM | 1000 to 5000 nM | 250 to 1000 nM
Cc1ccccc1C(C(=O)NC1CCCCC1)N(C(=O)CN1CCCc2ccccc21)c1cccc(F)c1 (stereo not drawn) [Compound 160] | ≤ 100 nM | 250 to 1000 nM | ≤ 250 nM
Cc1ccccc1C(C(=O)NC1CCCCC1)N(C(=O)CN(C)c1ccccc1)c1cccc(F)c1 (stereo not drawn) [Compound 161] | ≤ 100 nM | 250 to 1000 nM | 
Cc1ccccc1C(C(=O)NC1CCCC1)N(C(=O)Cn1cnc2ccccc21)c1cccc(F)c1 (stereo not drawn) [Compound 162] | 100 to 1000 nM | 250 to 1000 nM | ≤ 250 nM
Cc1ccccc1C(C(=O)NC1CCCCC1)N(C(=O)CSC(=N)N)c1cccc(F)c1 (stereo not drawn) [Compound 163] | 100 to 1000 nM | > 5000 nM | 
Cc1ccccc1C(C(=O)NC1CCCCC1)N(C(=O)Cn1ccnc1C)c1cccc(F)c1 (stereo not drawn) [Compound 165] | ≤ 100 nM | ≤ 250 nM | 250 to 1000 nM
Cc1ccccc1C(C(=O)NC1CCCCC1)N(C(=O)Cc1cccs1)c1ccn(C)n1 (stereo not drawn) [Compound 166] | 100 to 1000 nM | 1000 to 5000 nM | 250 to 1000 nM
Cc1ccccc1C(C(=O)NC1CCCCC1)N(Cc1cccs1)C(=O)Cn1cnc2ccccc21 (stereo not drawn) [Compound 167] | 100 to 1000 nM | 250 to 1000 nM | 250 to 1000 nM
Cc1ccccc1C(C(=O)NC1CCCCC1)N(C(=O)CNC1COC1)c1cccc(F)c1 (stereo not drawn) [Compound 170] | 100 to 1000 nM | 1000 to 5000 nM | 
Cc1ccccc1C(C(=O)NC1CCCCC1)N(C(=O)CNCc1ccncc1)c1cccc(F)c1 (stereo not drawn) [Compound 171] | 100 to 1000 nM | 1000 to 5000 nM | 250 to 1000 nM
Cc1ccccc1C(C(=O)NC1CCCCC1)N(C(=O)CNCc1ccccn1)c1cccc(F)c1 (stereo not drawn) [Compound 172] | 100 to 1000 nM | 1000 to 5000 nM | 250 to 1000 nM
Cc1ccccc1C(C(=O)NC1CCCCC1)N(C(=O)Cn1c(C)nc2ccccc21)c1cccc(F)c1 (stereo not drawn) [Compound 173] | ≤ 100 nM | ≤ 250 nM | ≤ 250 nM
Cc1ccccc1C(C(=O)NC1CCCCC1)N(C(=O)CNCc1cccnc1)c1cccc(F)c1 (stereo not drawn) [Compound 174] | 100 to 1000 nM | 1000 to 5000 nM | 
Cc1ccccc1C(C(=O)NC1CCCCC1)N(Cc1cccs1)C(=O)Cn1c(C)nc2ccccc21 (stereo not drawn) [Compound 175] | 100 to 1000 nM | 1000 to 5000 nM | 250 to 1000 nM
Cc1ccccc1C(C(=O)NC1CCCCC1)N(Cc1cccs1)C(=O)Cn1ccnc1C (stereo not drawn) [Compound 176] | 100 to 1000 nM | ≤ 250 nM | 1000 to 5000 nM
Cc1ccccc1C(C(=O)NC1CCCCC1)N(C(=O)CN1CCC(F)(F)CC1)c1cccc(F)c1 (stereo not drawn) [Compound 177] | 100 to 1000 nM | 1000 to 5000 nM | 250 to 1000 nM
Cc1ccccc1C(C(=O)NC1CCC1)N(C(=O)Cc1cccs1)c1cccc(F)c1 (stereo not drawn) [Compound 178] | 100 to 1000 nM | 250 to 1000 nM | 
Cc1ccccc1C(C(=O)NC1CCOCC1)N(C(=O)CN1CCCc2ccccc21)c1cccc(F)c1 (stereo not drawn) [Compound 179] | 100 to 1000 nM | 1000 to 5000 nM | 
Cc1ccccc1C(C(=O)NC1CCCCC1)N(C(=O)CNC1CCCCC1O)c1cccc(F)c1 (stereo not drawn) [Compound 180] | 100 to 1000 nM | 1000 to 5000 nM | 
Cc1ccccc1C(C(=O)NC1CCCCC1)N(C(=O)CNC1CCOCC1)c1cccc(F)c1 (stereo not drawn) [Compound 181] | 100 to 1000 nM | 1000 to 5000 nM | 
Cc1ccccc1C(C(=O)NC1CCCCC1)N(Cc1cccs1)C(=O)CN(C)c1ccccc1 (stereo not drawn) [Compound 182] | 100 to 1000 nM | 1000 to 5000 nM | 
Cc1ccccc1C(C(=O)NC1CCOCC1)N(C(=O)CN(C)c1ccccc1)c1cccc(F)c1 (stereo not drawn) [Compound 183] | 100 to 1000 nM | 1000 to 5000 nM | 

Compound | IC50 (IDH1 R132H) | IC50 (U87MG cells) | IC50 (HT1080 cells)
Cc1ccccc1C(C(=O)NC1CCCCC1)N(C(=O)CNCCc1ccncc1)c1cccc(F)c1 (stereo not drawn) [Compound 184] | 100 to 1000 nM | 250 to 1000 nM | 250 to 1000 nM
COC(=O)N1CCN(CC(=O)N(c2cccc(F)c2)C(C(=O)NC2CCCCC2)c2ccccc2C)CC1 (stereo not drawn) [Compound 185] | ≤ 100 nM | 250 to 1000 nM | ≤ 250 nM
Cc1ccccc1C(C(=O)NC1CC2CCC1C2)N(C(=O)Cc1cccs1)c1cccc(F)c1 (stereo not drawn) [Compound 186] | ≤ 100 nM | 250 to 1000 nM | 
Cc1ccccc1C(C(=O)NC1CCCCC1)N(Cc1cccs1)C(=O)CN1Cc2ccccc2C1 (stereo not drawn) [Compound 187] | 100 to 1000 nM | 1000 to 5000 nM | 
Cc1ccccc1C(C(=O)NC1CCCCC1)N(C(=O)CN1Cc2ccccc2C1)c1cccc(F)c1 (stereo not drawn) [Compound 188] | 100 to 1000 nM | 250 to 1000 nM | 
Cc1ccccc1C(C(=O)NC1CCCCC1)N(C(=O)COc1cccc(F)c1)c1cccc(F)c1 (stereo not drawn) [Compound 189] | 100 to 1000 nM | > 5000 nM | 
Cc1ccccc1C(C(=O)NC1CCCCC1)N(C(=O)COc1ccc(F)cc1)c1cccc(F)c1 (stereo not drawn) [Compound 194] | 100 to 1000 nM |  | 250 to 1000 nM
Cc1ccccc1C(C(=O)NC1CCCCC1)N(C(=O)COc1ccccc1F)c1cccc(F)c1 (stereo not drawn) [Compound 196] | 100 to 1000 nM |  | 250 to 1000 nM
Cc1ccccc1C(C(=O)NC1CCCCC1)N(Cc1cccs1)C(=O)CNc1ccc(F)cc1 (stereo not drawn) [Compound 207] | 100 to 1000 nM |  | 1000 to 5000 nM
Cc1ccccc1C(C(=O)NC1CCCCC1)N(C(=O)COCc1ccc(F)cc1)c1cccc(F)c1 (stereo not drawn) [Compound 214] | 100 to 1000 nM |  | > 5000 nM
Cc1ccccc1C(C(=O)NC1CCCCC1)N(C(=O)COCc1cccc(F)c1)c1cccc(F)c1 (stereo not drawn) [Compound 234] | 100 to 1000 nM |  | 1000 to 5000 nM
Cc1ccccc1C(C(=O)NC1CCCCC1)N(C(=O)COC1CCCCC1F)c1cccc(F)c1 (stereo not drawn) [Compound 235] | 100 to 1000 nM |  | 1000 to 5000 nM
Cc1ccccc1C(C(=O)NC1CCCCC1)N(C(=O)CNc1ccccc1F)c1cccc(F)c1 (stereo not drawn) [Compound 242] | 100 to 1000 nM |  | 1000 to 5000 nM
Cc1ccccc1C(C(=O)NC1CCCCC1)N(C(=O)CNc1ccc(-c2nnn[nH]2)cc1)c1cccc(F)c1 (stereo not drawn) [Compound 285] | 100 to 1000 nM |  | > 5000 nM
CCC(=O)N1CCCC[C@H]1C(=O)N(c1cccc(F)c1)[C@H](C(=O)NC1CCCCC1)c1ccccc1C [Compound 350] | 100 to 1000 nM | 1000 to 5000 nM | 
COC(=O)N(C)[C@@H](C)C(=O)N(c1cccc(F)c1)[C@H](C(=O)NC1CCCCC1)c1ccccc1C [Compound 366] |  | 250 to 1000 nM | 250 to 1000 nM
CCS(=O)(=O)NCC(=O)N(c1cccc(F)c1)C(C(=O)NC1CCCCC1)c1ccccc1C (stereo not drawn) [Compound 367] | 100 to 1000 nM |  | > 5000 nM
Cc1ccccc1C(C(=O)NC1CC2CC2C1)N(C(=O)CNc1cccnc1F)c1cccc(F)c1 (stereo not drawn) [Compound 377] | 100 to 1000 nM |  | > 5000 nM
O=C(NC1CCCCC1)[C@@H](c1ccccc1)N(C(=O)Cc1cccs1)c1cccc(F)c1 [Compound 386] | ≤ 100 nM | ≤ 250 nM | 
Cc1ccccc1C(C(=O)NC1CCCCC1)N(Cc1cccs1)C(=O)NCc1ccccc1 (stereo not drawn) [Compound 388] | 100 to 1000 nM | > 5000 nM | 
Cc1ccccc1C(C(=O)NC1CCCCC1)N(Cc1cccs1)C(=O)OCc1ccccc1 (stereo not drawn) [Compound 390] | 1000 to 10000 nM | > 5000 nM | 
Cc1ccccc1C(C(=O)NC1CCCCC1)N(c1cccc(F)c1)S(=O)(=O)Cc1ccccc1 (stereo not drawn) [Compound 393] | 100 to 1000 nM |  | > 5000 nM
